Measured values as given in patent US20180125074A1, “PESTICIDAL COMPOSITIONS AND RELATED METHODS” (priority 2015, published 2018).

System: green peach aphids (Myzus persicae)
Assay: Pesticidal activity against green peach aphid on cabbage plants after soil treatment
Type: in vivo
Details: for % Control at DAT of 21 days: Table 6; for % Control at DAT of 21 days / % Control at DAT of 28 days: GEROPON SDS 384 ppm
Procedure: Each tested compositions was prepared by mixing a predetermined amount of the CLOSER® SC insecticide (a sulfoxaflor concentrate having a sulfoxaflor concentration of 240 g/L) with a predetermined amount of sodium dioctylsulfosuccinate GEROPON® SDS anionic surfactant in an aqueous medium.
The compositions containing different amounts of sulfoxaflor and sodium dioctylsulfosuccinate GEROPON® SDS surfactant were prepared as shown in TABLE 4. For example, the “Sulfoxaflor at 100 ppm” composition contained about 0.043% weight of sulfoxaflor based on the total weight of the composition (i.e., 100 ppm of sulfoxaflor per one gram of final soil mixture). “Sulfoxaflor at 100 ppm+GEROPON®” composition contained about 0.043% weight of sulfoxaflor based on the total weight of the composition (i.e., 100 ppm of sulfoxaflor per one gram of final soil mixture), and about 0.225% weight of sodium dioctylsulfosuccinate GEROPON® SDS surfactant based on the total weight of the composition (i.e., 384 ppm per one gram of the final soil mixture; 1500 ppm per one gram of the total soil liquid).
The imidacloprid pesticide PROVADO® 1.6 from Bayer CropScience LP (North Carolina, USA) was used as a standard commercial pesticidal composition for aphid control. The imidacloprid pesticide PROVADO® 1.6 was tested at three different loadings: 100 ppm, 25 ppm, and 6.25 ppm per gram of final soil mixture. In this EXAMPLE 6, water was tested as a control composition. Furthermore, an aqueous solution of sodium dioctylsulfosuccinate GEROPON® SDS anionic surfactant was tested.
Cabbage plants (Brassica oleracea capitata L) of uniform size (two new leaf stage) infested with green peach aphids (Myzus persicae) (“GPA”) were used as the study models according to the following procedure:
Cabbage seeds were planted in 3-inch pots containing a peat-based METRO MIX 360® potting soil available from SUN GRO® Horticulture Canada, Ltd. The seeds were propagated in greenhouse zone G4, located in the R&D building of Dow AgroSciences (Indianapolis, Ind., USA), at 26° C. with a relative humidity of 53%. Natural light was supplemented with 1,000-watt metal halide overhead lamps with an average illumination of about 500 μE/m^2·s photosynthetic active radiation for 16 consecutive hours each day.
Each of the 1-ounce clear cups was filled with about 30 grams of the inoculated Midwest field soil having the components as shown in TABLE 5. […] The soil moisture of the Midwest field soil was about 15% as measured by Mettler LJ16 Moisture Analyzer (15 minutes and 100° C.).
The Midwest field soil in each selected 1-ounce cup was treated with about 9 mL of the selected composition using a 10 mL pipette. Deionized water was used as a control. The remainders of the 1-ounce cups were capped, and a small hole was poked into each lid to provide air flow. The remainders of the 1-ounce cups were stored in a controlled environment at 26° C. and covered with a black plastic bag to prevent any light from entering, until being used for the test.
Cabbage plants were gently removed from the 3-inch pots, and the plant roots were washed with water to remove any excess soil. Then, the cabbage plant was transplanted into the 1-ounce cup containing the treated Midwest field soil (one cabbage plant per one 1-ounce cup). The plants were watered as needed after being transplanted.
At the selected number of days after treating the Midwest field soil with the composition (i.e., numbers of days after the soil treatment, “DAT”), the cabbage plant in each 1-ounce cup was infested with GPA by placing a piece of squash leaf infested with about 25 aphids on each cabbage plant. The plants were then placed in a controlled environment at 26° C. for three days.
Five different evaluation times were performed: DAT of 0, 7, 14, 21, or 28 days. For example, for the DAT of zero (0) day, the cabbage plant was infested with GPA on the same day that it was transplanted into the treated Midwest field soil. […]

[1] = dose rate: sulfoxaflor 6.25 ppm, combination 6.25 + 384 ppm
[2] = Table 7, dose rate: sulfoxaflor 6.25 ppm, combination 6.25 + 384 ppm
[3] = Table 8, dose rate: sulfoxaflor 25 ppm, combination 25 + 384 ppm

| Structure (SMILES) | number of live GPA aphids at DAT of 21 days (FIG. 6, cabbage in treated Midwest soil, counted three days after infestation, loading as named in the composition) | % Control at DAT of 21 days [1] | % Control at DAT of 28 days [2] | % Control at DAT of 28 days [3] |
| --- | --- | --- | --- | --- |
| CCCCCCCCOC(=O)CC(C(=O)OCCCCCCCC)S(=O)(=O)O.[Na] (stereo not shown) [GEROPON ® SDS Surfactant, Sodium dioctyl sulfosuccinate] | 30 to 40 | 0% | 0% | 0% |
| C[C@@H](c1ccc(C(F)(F)F)nc1)[S@](C)(=O)=NC#N (racemic) [Sulfoxaflor, [methyl(oxo) {1-[6-(trifluoromethyl)-3-pyridyl]ethyl}-λ^6-sulfanylidene]cyanamide, reference compound] |  | 0% | 0% | 36.39% |
